Assay results as given in patent US7662842B2, “Thiazolidinone amides, thiazolidine carboxylic acid amides, and serine amides, including polyamine conjugates thereof, as selective anti-cancer agents” (Ohio State Univesity Research Foundation, priority 2003, dated 2010).

Legend:
Format in all cases: cell-based
WM-164 cells = experiment: Sulforhodamine B assay in melanoma cells, WM-164; settings: Homo sapiens, WM164, read-out: IC50 WM-164; SRB assay, 48 h incubation; melanoma cell line
SKMEL-188 cells = experiment: Lactate dehydrogenase release assay; settings: SKMEL-188, 48 hours, FIG. 11A
Experimental: SKMEL-188 melanoma cells were incubated with Compound 4(R) at 60 μM for 48 hours. FIG. 11A is a graph showing the cytotoxicity as measured by LDH release from the cells following treatment. Data is presented as mean±SEM (n=8), *p<0.05, **p<0.005. FIG. 11B is a pair of graphs that show the DNA content, as measured by flow cytometry, of cells that were exposed to control (left) and Compound 4(R) (right).
Lactate Dehydrogenase Release Assay: SKMEL-188 cells were seeded at a density of 5000 cells per well in a 96-well flat-bottom microtiter plate. Media were changed after 12 hours and the testing compound was added at serial dilutions. Media were changed with fresh compound every 24 hours. […] Lactate dehydrogenase (LDH) in supernatants was measured using Cytotox 96 Non-Radioactive Cytotoxicity Assay (Promega, Madison, Wis.). […] At the end of incubation stop solution was added to each well and plate was read at 490 nm. Cytotoxicity of compounds was calculated using the following formula: percent cytotoxicity=experimental LDH release/maximum LDH release Experimental LDH release was calculated by subtraction of absorbance corresponding to media only from absorbance corresponding to control/compound treated cells. Maximum LDH release was calculated by subtraction of absorbance corresponding to media with added lysis solution from absorbance corresponding to cells lysed with lysis solution. […]

effector capsase-3 = experiment: Activation of effector caspase-3
[1] = test system: SKMEL-188 and WM-164 cell lines; experiment: SRB assay, statements on both melanoma cell lines
Experimental: Louis, Mo.). WM-164 cells (gift of Dr. Meenhard Herlyn, Wistar Inst., Philadelphia, Pa.) and human dermal fibroblasts (Cascade Biologics, Inc., Portland, Oreg.) were cultured in DMEM medium (Cellgro Mediatech, Inc.) supplemented with 5% fetal bovine serum, 1% antibiotic.antimycotic mixture and bovine insulin ([…], Sigma-Aldrich, Inc.). Human dermal fibroblasts were used as a control to examine the effects of compounds on stromal environment. Thus, the effect of the various compounds on melanoma cells versus fibroblasts would document their potential selectivity. Sulforhodamine B Assay: Cells were seeded into 96-well plates at 5000 cells/well. After 12 hours, media were changed and serial dilutions of compounds were added. Cells were incubated with each compound for 48 hours. Fresh media containing the test compound were changed ever 24 hours. Thereafter, total cell protein corresponding to cell numbers (both viable and non-viable cells) were measured using the sulforhodamine B (SRB) assay according to manufacturer's protocol (Sigma-Aldrich, Inc.) (Rubinstein et al., “Comparison of in vitro Anticancer Drug-screening Data Generated with a Tetrazolium Assay Versus a Protein Assay Against a Diverse Panel of Human Tumor Cell Lines,” J. Natl. Cancer Inst. 82:1113-1118 (1990); Dothager et al., “Synthesis and Identification of Small Molecules that Potently Induce Apoptosis in Melanoma Cells Through GI Cell Cycle Arrest,” J. Am. Chem. Soc. 127:8686-8696 (2005), each of which is hereby incorporated by reference in its entirety). Briefly, cells were fixed with trichloracetic acid, washed and incubated with sulforhodamine B for 30 minutes. After another wash, dye incorporated into the cells was solubilized and measured using a plate reader at 565 nm. Statistical Analysis: Data is presented as mean±SEM (n=6-8). […] Statistical analyses were performed with Student's t-test (*p<0.05; **p<0.005). […] DTIC and Taxol were assayed in the same way for comparison and served as internal quality controls in the different batches of assay. For comparison, the activities of 5R and 5S were measured.

CCCCCCCCCCCCCCNC(=O)[C@@H]1CSC(c2ccccc2)N1.Cl (mixture of isomers) [Compound 4, (2RS, 4R)-2-Phenylthiazolidine-4-carboxylic acid tetradecylamide Hydrochloride]
IC50 (WM-164 cells): 460 nM
LDH released to cellular environment (SKMEL-188 cells): dramatic does-dependent increase of LDH released
Activation of effector caspase-3 (effector capsase-3): no increase in activity
IC50 ([1]; 48 h, read-out: IC50 against both melanoma cell lines): ~500 nM
Selectivity against both neoplastic cell lines (versus fibroblasts) ([1]; melanoma cells versus fibroblasts): over 10 fold
